Laboratory results published in patent US10570151B2, “Biologically active molecules, conjugates thereof, and therapeutic uses” (priority 2013, dated 2020).
Read-outs that look alike come from different tables or passages of the source.

Assays:
Assay type in all cases: cell-based
[1] = test system: C4-2 cells (prostate cancer line); assay: In vitro cytotoxicity (cell viability, CCK8) in C4-2 cells; conditions: C4-2, unconjugated (Table 2, FIG. 8)
Experimental: (§1) Cells were seeded in PDL-coated 96 well plates at 375 (MMT/hEGFRvIII), 1500 (U251/hEGFRvIII), 2000 (HEK293/hEGFRvIII), or 3000 (C4-2, PC3/hSTEAP1, T47D, and U87-MG) cells per well in complete growth media and grown overnight. For cell viability curves, serially diluted conjugates or free representative payloads were added to the cells at final concentrations ranging from 500 nM to 1 pM and incubated for 3 days. To measure viability in MMT/hEGFRvIII, U251/hEGFRvIII, HEK293/hEGFRvIII, C4-2, PC3/hSTEAP1, and U87-MG, cells were incubated with CCK8 (Dojindo) for the final 1-3 hours and the absorbance at 450 nm (OD450) was determined on a Flexstation3 (Molecular Devices). To measure viability in T47D, cells were incubated on ice for 30 min in 4% formaldehye+3 ug/ml Hoechst. Images of Hoechst stained nuclei were acquired on the ImageXpress Micro XL (Molecular Devices) and nuclear counts were determined with the Columbus analysis software (PerkinElmer). Background OD450 levels (CCK8) or nuclear counts from digitonin ([…]) treated cells were subtracted from all wells and viability is expressed as a percentage of the untreated controls. IC50 values were determined from a four-parameter logistic equation over a 10-point response curve (GraphPad Prism). All curves and IC50 values are corrected for payload equivalents.

[2] = test system: HEK293 cells; assay: Anti-proliferation activity of unconjugated compounds in HEK293; conditions: Homo sapiens
Experimental: as §1
(§2) In a separate set of experiments, compound 6, along with amino analogs 27, 29, and 31 were assayed in HEK293 and U87MG for anti-proliferation activity (FIG. 7). […] (For these experiments, background correction with digitonin was not performed).
(§3) In yet another set of experiments, compounds 6, 9, 33, and 35 were assayed in HEK293, U251, C4-2, PC3, and MMT for anti-proliferation activity (FIG. 8). The trend in potency follows 9>33>35>6 and is consistent for the 5 cell lines assayed.

[3] = test system: U87MG cells; assay: Anti-proliferation activity of unconjugated compounds in U87MG; conditions: Homo sapiens, U-87 MG, background correction with digitonin not performed (FIG. 7)
Experimental: as §1, §2

[4] = test system: U251 cells; assay: Anti-proliferation activity of unconjugated compounds in U251; conditions: Homo sapiens, U-251; U251, unconjugated (Table 2, FIG. 8)
Experimental: as §1, §3

[5] = test system: PC3 cells; assay: Anti-proliferation activity of unconjugated compounds in PC3; conditions: Homo sapiens, PC-3; PC3, unconjugated (Table 2, FIG. 8)
Experimental: as §1, §3

[6] = test system: MMT cells; assay: Anti-proliferation activity of unconjugated compounds in MMT; conditions: unconjugated (Table 2, FIG. 8)
Experimental: as §1, §3

[7] = HEK293, unconjugated (Table 2, FIG. 8), read-out: IC50 (nM) HEK293
[8] = HEK293, unconjugated, background correction with digitonin not performed (FIG. 7), read-out: IC50

## CNCCC(=O)N(C)[C@@H](C)C(=O)O[C@H]1CC(=O)N(C)c2cc(cc(OC)c2Cl)C/C(C)=C/C=C/[C@@H](OC)[C@@]2(O)C[C@H](OC(=O)N2)[C@@H](C)[C@@H]2O[C@@]12C [Compound 6]
[1]
  IC50: 200 nM
[2]; [7]
  IC50: 200 nM
[2]; [8]
  IC50: > 30 nM
[3]
  IC50: > 30 nM
[4]
  IC50: 150 nM
[5]
  IC50: 250 nM
[6]
  IC50: 250 nM

## COc1cc2cc(c1Cl)N(C)C(=O)C[C@H](OC(=O)[C@H](C)N(C)C(=O)CCSSC)[C@]1(C)O[C@H]1[C@H](C)[C@@H]1C[C@@](O)(NC(=O)O1)[C@H](OC)/C=C/C=C(\C)C2 [Compound 9, Maytansin-3-N-methyl-L-(S)-alanine-propanamidyl-3-methyldisulfide]
[1]
  IC50: 1.5 nM
[2]; [7]
  IC50: 0.2 nM
[4]
  IC50: 0.4 nM
[5]
  IC50: 0.4 nM
[6]
  IC50: 0.3 nM

## COc1cc2cc(c1Cl)N(C)C(=O)C[C@H](OC(=O)[C@H](C)N(C)C(=O)CCN)[C@]1(C)O[C@H]1[C@H](C)[C@@H]1C[C@@](O)(NC(=O)O1)[C@H](OC)/C=C/C=C(\C)C2 [Compound 27, Maytansin-3-N-methyl-L-(S)-alanine-β-alanine]
[2]; [8]
  IC50: > 30 nM
[3]
  IC50: > 30 nM

## COc1cc2cc(c1Cl)N(C)C(=O)C[C@H](OC(=O)[C@H](C)N(C)C(=O)CCCN)[C@]1(C)O[C@H]1[C@H](C)[C@@H]1C[C@@](O)(NC(=O)O1)[C@H](OC)/C=C/C=C(\C)C2 [Compound 29, Maytansin-3-N-methyl-L-(S)-alanine-γ-aminobutyramide]
[2]; [8]
  IC50: > 30 nM
[3]
  IC50: > 30 nM

## CNCCCC(=O)N(C)[C@@H](C)C(=O)O[C@H]1CC(=O)N(C)c2cc(cc(OC)c2Cl)C/C(C)=C/C=C/[C@@H](OC)[C@@]2(O)C[C@H](OC(=O)N2)[C@@H](C)[C@@H]2O[C@@]12C [Compound 31, Maytansin-3-N-methyl-L-(8)-alanine-N-Me-γ-aminobutyramide]
[2]; [8]
  IC50: > 30 nM
[3]
  IC50: > 30 nM

## COc1cc2cc(c1Cl)N(C)C(=O)C[C@H](OC(=O)[C@H](C)N(C)C(=O)c1ccc3c(c1)CCNC3)[C@]1(C)O[C@H]1[C@H](C)[C@@H]1C[C@@](O)(NC(=O)O1)[C@H](OC)/C=C/C=C(\C)C2 [Compound 33, Maytansin-3-N-methyl-L-N-alanine-N-carboxy-6-(1,2,3,4-tetrahydroisoquinoline)]
[1]
  IC50: 20 nM
[2]; [7]
  IC50: 20 nM
[4]
  IC50: 15 nM
[5]
  IC50: 30 nM
[6]
  IC50: 20 nM

## COc1cc2cc(c1Cl)N(C)C(=O)C[C@H](OC(=O)[C@H](C)N(C)C(=O)C1CCNCC1)[C@]1(C)O[C@H]1[C@H](C)[C@@H]1C[C@@](O)(NC(=O)O1)[C@H](OC)/C=C/C=C(\C)C2 [Compound 35, Maytansin-3-N-methyl-L-(S)-alanine-N-carboxy-4-piperidine]
[1]
  IC50: 55 nM
[2]; [7]
  IC50: 50 nM
[4]
  IC50: 25 nM
[5]
  IC50: 65 nM
[6]
  IC50: 60 nM
